Source: patent US10493100B2, “Pharmaceutical composition for preventing or treating brain cancer including crystal polymorph of tetraarsenic hexoxide, and method for preparing same” (CHEMAS CO., LTD., priority 2016, dated 2019)

Experiments:
[1] = tested on: human brain glioblastoma cell line U-87MG; assay: Cell proliferation assay (MTT assay), U-87MG; format: cell-based
Procedure: (§1) Fetal bovine serum (FBS) and cell culture medium were prepared (Hyclone), and dimethyl sulfoxide (DMSO) and 3-(4,5-dimetyl-thiazol-2yl)-2,5-diphenyltetrazolium bromide (MTT, Amresco LLC, USC) were prepared.
(§2) As human cancer cell lines, human brain glioblastoma cell lines U-87MG and U-118MG were obtained from the Shanghai Cell Bank of Chinese Academy of Sciences. The cells were incubated in Eagle's Minimum Essential Medium (EMEM), supplemented with 10% FBS, 100 U/ml penicillin, and 100 μg/ml streptomycin according to the culture condition, in a humidified incubator with 5% CO2 and 95% air. The medium was exchanged every three days.
(§3) The effects of Example 1 and Comparative Examples 1 to 3 on cell proliferation were assessed using MTT assay. MTT assay is based on the ability of viable cells against MTT to produce insoluble dark blue formazan products. After the cells were suspended in the medium by trypsin treatment and collected, the cells were dispensed at a density of 4×10^3 cells/well in a 96-well culture dish (Costar, Cambridge, Mass., USA). After 24 hours, Example 1 and Comparative Examples 1 to 3 as treatment samples were added, at 0, 0.625, 1.25, 2.5, 5, 10, 20, 40, or 80 μM, to the cells in the media containing 10% FBS, and then the cells were incubated. […] All the crystals were completely dissolved by standing at room temperature for 15 minutes, and the absorbance was measured using a micro-plate reader at a wavelength of 570 nm (A570 nm).
(§4) The absorbance value of the control group treated without the sample was calculated as 100, and the absorbance value of the treatment group treated with the sample, compared with that of the control group, was calibrated, and the percentage of inhibition of cell proliferation was calculated according to the following equation. Percentage (%) of inhibition of cell proliferation=((mean absorbance of control group cells−mean absorbance of treatment group cells)/mean absorbance of control group cells)×100
(§5) All data were expressed as mean±standard error of the mean (mean±SEM). […]

[2] = tested on: human brain glioblastoma cell line U-118MG; assay: Cell proliferation assay (MTT assay), U-118MG; format: cell-based
Procedure: as §1, §2, §3, §4, §5

gliomatosis cerebri = assay: Clinical Test-1: patient; format: in vivo, human
Procedure: (§6) The following clinical tests were conducted using the composition of Example 1.
From the 10th day after the diagnosis, mobility weakening and trembling symptoms of both arms began to appear and then proceeded rapidly. […] Pre-treatment MRI images of this patient are shown in FIG. 4, and MRI images after two months and three months of radiotherapy together with administration of Example 1 are shown in FIGS. 5 and 6, respectively.

[3] = tested on: glioblastoma in the left parieto-temporal lobe; assay: Clinical Test-2: patient; format: in vivo, human; conditions: after surgery, radiotherapy and Tremodal
Procedure: as §6
This patient with symptoms of headache, vomiting, diplopia, and visual field defect was diagnosed with glioblastoma in the left parieto-temporal lobe. On the 3rd day after the diagnosis, tumor removal was conducted by surgery, and the tumor was confirmed as glioblastoma of the WHO grade IV/IV as a result of pathologic diagnosis. Radiotherapy with Tremodal treatment (61.2 Gy/33fx) was performed from the 45th day to the 90th day after the diagnosis. The remaining tumors were still confirmed on MRI images after the radiotherapy and Tremodal treatment. From the 95th day after the diagnosis, 5 mg of Example 1 was administered three times a day for 17 months. […] The pre-treatment MRI images of this patient are shown in FIG. 7, and MRI images after the surgery and radiotherapy are shown in FIG. 8. Respective images after four months, seven months, and ten months of administration of Example 1 are shown in FIGS. 9A, 9B, and 9C, respectively.

[4] = tested on: U-87MG cells labeled with luciferase; assay: In vivo efficacy test, tumor imaging signal in animal models transplanted with human brain glioblastoma cell line; design: species or system Balb/C female nude mice; conditions: 2.25 mg/kg once daily
Procedure: (§7) The human brain glioblastoma cell line U-87MG (purchased from ATCC) was incubated in Eagle's Minimum Essential Medium (EMEM) supplemented with 10% FBS, 100 U/ml penicillin, and 100 μg/ml streptomycin in an incubator under conditions of 37° C., 5% CO2, and 95% air. The medium was exchanged every three days.
(§8) The U-87MG cells labeled with luciferase were inoculated into the primary site of the brain in […] Balb/C female nude mice weighing 16-19 g, and the amount of cells inoculated was 5×10^5/5 uL. The animals were subjected to imaging examinations on the 6th day after the inoculation, when the surgical sites of the animals were restored and the tumor cells were slightly grown. The animals were randomly divided into two groups, four animals for each group, according to the imaging results. A test group was administered with a solution containing Example 1 dissolved in physiological saline (0.9% NaCl), and a control group was administered with only physiological saline, which is a solvent used for the test group. The animals of the two groups were administered once daily with physiological saline or 2.25 mg/kg Example 1. The dose was 10 uL/g on the basis of the weight of the animals. During the administration, the weight and health conditions of the animals were continuously monitored, and at the same time, the animals were subjected to image examination.

[5] = Weight measurement in animal models transplanted with human brain glioblastoma cell line; format: in vivo, Balb/C female nude mice
Procedure: as §7, §8

[6] = compared with Comparative Example 2 or 3 (4:1 or 1:1 mixtures)
[7] = from the 7th day of administration (FIG. 10A)

Substance: tetraarsenic hexoxide [Example 1]
- percentage of inhibition of brain glioblastoma cell proliferation [1, 6]: higher
- percentage of inhibition of brain glioblastoma cell proliferation ([1]; incubation 48 hours (FIG. 2A), compared with Comparative Example 1): higher
- percentage of inhibition of brain glioblastoma cell proliferation ([1]; incubation 72 hours (FIG. 2B), compared with Comparative Example 1): higher
- percentage of inhibition of brain glioblastoma cell proliferation [2, 6]: higher
- percentage of inhibition of brain glioblastoma cell proliferation ([2]; incubation 48 hours (FIG. 3A), compared with Comparative Example 1): higher
- percentage of inhibition of brain glioblastoma cell proliferation ([2]; incubation 72 hours (FIG. 3B), compared with Comparative Example 1): higher
- mobility weakening and trembling symptoms (gliomatosis cerebri; 15 mg per day from the 17th day after the diagnosis, before radiotherapy): began to improve
- symptoms (gliomatosis cerebri; 15 mg per day together with radiotherapy from the 27th to the 75th day after the diagnosis): the symptoms disappeared completely
- tumor size on MRI images (gliomatosis cerebri; after three months of radiotherapy together with administration (FIG. 6)): tumors almost disappeared
- tumor size on MRI images (gliomatosis cerebri; after two months of radiotherapy together with administration (FIG. 5)): tumor sizes were reduced
- sizes of remaining tumors (MRI) ([3]; 5 mg three times a day for 17 months): confirmed to decrease
- subjective symptoms ([3]; 5 mg three times a day, from 2 months of administration): no subjective symptom
- luminescence signal intensities due to the proliferation and metastasis of tumors ([4]; 7th and 9th days of administration (FIG. 10B), control group vs test group): in the control group were much stronger than those in the test group
- tumor signal intensities [4, 7]: significantly light
- tumor signals in the spine (tumor metastasis into the spine) [4, 7]: hardly observed in the spine
- Body change 9 days after the first administration ([5]; 2.25 mg/kg once daily): -0.8 g
- Weight 9 days after the first administration ([5]; 2.25 mg/kg once daily, mean ± SEM, 4 animals): 16.1 ± 0.5 g
- weight after 9 days of drug administration (in words) ([5]; 2.25 mg/kg once daily, control group largely reduced): almost unchanged weight
- Weight before administration ([5]; test group, mean ± SEM, 4 animals, baseline): 16.9 ± 0.2 g
